Biological target: T1, hen egg-white lysozyme (HEWL) (Gallus gallus, UniProt P00698)
T1 construct: gene LYZ
Assay: intrinsic Trp fluorescence quenching titration ([…] nm), two-site fit in DynaFit
Format: binding
Conditions: pH 2.0, 37 °C, 2 mM sodium chloroacetate, 10 µM HEWL; stronger of two independent sites; cationic ligand

T1 sequence (P00698 19-147): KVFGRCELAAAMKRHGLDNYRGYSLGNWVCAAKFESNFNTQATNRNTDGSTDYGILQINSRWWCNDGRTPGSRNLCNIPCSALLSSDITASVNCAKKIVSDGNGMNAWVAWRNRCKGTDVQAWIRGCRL

Row | Structure (SMILES) | Ka (M^-1).10^-3( ^a)
1 | Cc1ncccc1O [2 m-3HP, 3-hydroxy-2-methylpyridine] | (9.3 ± 0.2)·10^3
2 | Cc1ccc(O)c(C)n1 [2,6dm-3HP, 3-hydroxy-2,6-dimethylpyridine] | (8.9 ± 0.2)·10^3
3 | Cc1ccc(O)cn1 [6 m-3HP, 3-hydroxy-6-methylpyridine] | (7.4 ± 0.1)·10^3

From paper PMC4500996, “Ortho-methylated 3-hydroxypyridines hinder hen egg-white lysozyme fibrillogenesis” (Scientific Reports, 2015)
